2 compounds from paper PMC8821551, “Binding of cationic analogues of α-MSH to lipopolysaccharide and disruption of the cytoplasmic membranes caused bactericidal action against Escherichia coli” (Scientific Reports, 2022) can be followed below.

Residues, ends and D or L forms follow the SMILES beside them.

The subject of one assay is E. coli cells. The assay can be described thus: LPS competitive inhibition assay. Type of assay: cell-based, Escherichia coli. The note with it: peptide fixed at 10 µM, free LPS beyond 128 µg/mL; 10^5 CFU/mL mid-log cells, 90 min, 37 °C; peptide without LPS = 100% mortality. As to the method: To determine whether LPS could influence the peptide’s antimicrobial activity, the potency of the most charged analogue, KKK-MSH, was evaluated against E. coli in the presence of LPS, using the protocol reported elsewhere. Peptide and LPS from E. coli […] (Sigma-Aldrich, India) in equal volume (50 µL) were incubated in a 96-well sterile plate at 37 °C for 1 h. After that, 100 μL of mid-log E. coli cells were added (at a final concentration of 10^5 CFU/mL) to the LPS-peptide mixture for 90 min at 37 °C. The peptide concentration was kept constant at 10 µM, and the concentration of LPS was varied from 2 to 1024 μg/mL. After incubation, 50 μL of the reaction mixture from each well was diluted with an appropriate amount of HEPES-glucose buffer, spread on LB agar plates, and kept at 37 °C for 16 h. Then on the next day, colonies were counted and compared with control (in the absence of LPS, cells treated with only peptide were considered 100% mortal). Mortality was calculated using the following formula: %survival=CFU/mLintreatedsample/CFU/mLinuntreatedsample×100Cellmortality(%)=100-%survival

Another assay relates to LPS from E. coli O55:B5. The assay can be described thus: LPS binding assay (BODIPY-TR-cadaverine displacement). Further details: species or system Escherichia coli. To be noted: BC displacement, LPS 50 μg/mL, 5 µM BC, 50 mM Tris buffer pH 7.4, peptide 0.25 to 20 µM, Hill equation fit, mean Kd ± SD of two independent experiments, read-out: Kd (dissociation constant) with LPS. The procedure: The binding of α-MSH and its analogues to LPS was checked using BODIPY-TR-cadaverine (BC) as a fluorescent probe[24],[42]. BC fluorescence decreases when bound to cell-free LPS and increases when it is freely accessible in solution. LPS (50 μg/mL) from E. coli O55:B5 (Sigma-Aldrich, India) was incubated with 5 µM of BC in 50 mM Tris buffer (pH 7.4) for 4 h. Next, 800 µL of this LPS-BC mixture was added to varying concentrations (0.25 µM to 20 µM) of the peptides in a quartz cuvette, and the BC fluorescence was measured on a spectrofluorimeter (Shimadzu RF-5301 PC) with excitation at 580 nm and emission at 620 nm. Each experiment was done in duplicate independently. Increase in fluorescence intensities with increase in concentration of peptides were plotted and the dissociation constant (Kd) was calculated from each individual data set and is presented as mean value ± SD using Igor Pro 6.36 (Y = Bmax × Xˆh/(Kdˆh + Xˆh); where X: concentration of peptide (µM), Y: fluorescence intensity (a.u.), h: Hill slope)[43]. The molecular mass of LPS was taken as 20,000 Da as described elsewhere, and its concentration was calculated accordingly.
Table S1: The dissociation constant (Kd) of α-MSH and its analogues with LPS. […]

For another assay, the system named is E. coli ATCC 25922. The assay can be described thus: Transmission electron microscopy (TEM) of treated cells. Type of assay: cell-based, Escherichia coli. The note with it: 100 µM peptide, 2 h, 37 °C, 10^8 CFU/mL mid-log cells. As to the method: To detect ultra-structural changes in E. coli on peptide treatment, TEM was used[16]. In brief, the mid-log E. coli cells (10^8 CFU/mL) were exposed with 100 µM concentration of all peptides independently for 2 h at 37 °C. After treatment, the cells were washed with PB buffer and fixed with 2.5% glutaraldehyde overnight at 4 °C. Next, the samples were post-fixed in 1.0% OsO4 and stained with uranyl acetate. After fixation, cells were dehydrated in a series of graded acetone and embedded in epoxy resin. Thin sections were made using a microtome (Leica EM UC6), which were transferred onto copper grids and stained with uranyl acetate followed by lead citrate. Samples were viewed via a transmission electron microscope (JEOL 2100F) to detect the ultrastructural and other morphological changes in the bacterial cells.

For `CSCC[C@H](NC(=O)[C@H](CCCCN)NC(=O)[C@H](Cc1ccc(O)cc1)NC(=O)[C@H](CCCCN)NC(C)=O)C(=O)N[C@@H](CCCCN)C(=O)N[C@@H](Cc1c[nH]cn1)C(=O)N[C@@H](Cc1ccccc1)C(=O)N[C@@H](CCCNC(=N)N)C(=O)N[C@@H](Cc1c[nH]c2ccccc12)C(=O)NCC(=O)N[C@@H](CCCCN)C(=O)N1CCC[C@H]1C(=O)N[C@H](C(N)=O)C(C)C` [KKK-MSH] (Ac-KYKMKHFRWGKPV-NH2), the “killing of E. coli cells in the presence of free LPS” value in the assay on E. coli cells is given as “less than 20%”. For the same compound, in the assay on LPS from E. coli O55:B5, the equilibrium dissociation constant (Kd) (commonly the free concentration of one partner at which half of the binding sites on the other are occupied at equilibrium, for simple one-to-one binding) is 9.8 ± 6.3 µM. Also, in the assay with E. coli ATCC 25922, the “ultrastructural changes by TEM, in words” value is on record as “complete collapse of the E. coli membrane”.

Turning to `CSCC[C@H](NC(=O)[C@H](CCCCN)NC(=O)[C@H](Cc1ccc(O)cc1)NC(=O)[C@H](CCCCN)NC(C)=O)C(=O)N[C@@H](C)C(=O)N[C@@H](Cc1c[nH]cn1)C(=O)N[C@@H](Cc1ccccc1)C(=O)N[C@@H](CCCNC(=N)N)C(=O)N[C@@H](Cc1c[nH]c2ccccc12)C(=O)NCC(=O)N[C@@H](CCCCN)C(=O)N1CCC[C@H]1C(=O)N[C@H](C(N)=O)C(C)C` [KKA-MSH] (Ac-KYKMAHFRWGKPV-NH2), the “ultrastructural changes by TEM, in words” value with E. coli ATCC 25922 is given as “complete collapse of the E. coli membrane”.
